Read-outs that look alike come from different tables or passages of the source.
How the values were obtained:
human 5-HT2A receptor = human 5-HT2A receptor (Homo sapiens (Human), UniProt P28223); test: Human 5-HT2A radioligand binding assay ([3H]-ketanserin)
[1] = Liver microsomes stability, rat; settings: for Predicted hepatic CL: Rat liver microsomes; for Remaining Percentage (%): Rat; for CLint scaled at 2 μM / half-life at 2 μM / microsomal CLint at 2 μM: rat, microsomes
Protocol: (§1) The objective of this study was to estimate in vitro metabolic stability of representative compounds of the application in pooled human and male mouse liver microsomes. The concentrations of parent compounds in reaction systems were evaluated by LC-MS/MS for estimating the stability in pooled human and male mouse liver microsomes. The in vitro intrinsic clearances of test compounds were determined as well.
(§2) A master solution in the “Incubation Plate” containing phosphate buffer, ultra-pure H2O, MgCl2 solution and liver microsomes was made according to Table 3. The mixture was pre-warmed at 37° C. water bath for 5 minutes.
(§3) 40 μL of 10 mM NADPH solution was added to each well. The final concentration of NADPH was 1 mM. The negative control samples were prepared by replacing NADPH with 40 μL of ultra-pure H2O. Samples were prepared in duplicate. Negative controls were prepared in singlet.
(§4) The reaction was started with the addition of 4 μL of 200 μM test compounds or control compounds to each master solution to get the final concentration of 2 μM. This study was performed in duplicate.
(§5) Aliquots of 50 μL were taken from the reaction solution at 0, 15, 30, 45 and 60 minutes. The reaction solutions were stopped by the addition of 4 volumes of cold methanol with IS (100 nM alprazolam, 200 nM imipramine, 200 nM labetalol and 2 μM ketoprofen). Samples were centrifuged at 3,220 g for 40 minutes. Aliquot of 90 μL of the supernatant was mixed with 90 μL of ultra-pure H2O and then was used for LC-MS/MS analysis.
(§6) LC/MS analysis was performed for all samples from this study using a Shimadzu liquid chromatograph separation system equipped with degasser DGU-20A5R; solvent delivery unit LC-30AD; system controller SIL-30AC; column oven CTO-30A; CTC Analytics HTC PAL System. Mass spectrometric analysis was performed using an Triple Quad™ 5500 instrument.
(§7) All calculations were carried out using Microsoft Excel. Peak area ratios of test compound to internal standard (listed in the below table) were determined from extracted ion chromatograms.
(§8) All calculations were carried out using Microsoft Excel. Peak areas were determined from extracted ion chromatograms. The slope value, k, was determined by linear regression of the natural logarithm of the remaining percentage of the parent drug vs. incubation time curve.
(§9) The in vitro half-life (in vitro t1/2) was determined from the slope value:
(§10) Conversion of the in vitro t1/2(min) into the in vitro intrinsic clearance (in vitro CLint, in μL/min/mg proteins) was done using the following equation (mean of duplicate determinations): […]

[2] = Liver microsomes stability, human; settings: for Predicted hepatic CL: Human liver microsomes; for Remaining Percentage (%): Human; for CLint scaled at 2 μM / half-life at 2 μM / microsomal CLint at 2 μM: human, microsomes
Protocol: as §1, §2, §3, §4, §5, §6, §7, §8, §9, §10

[3] = Liver microsomes stability, dog; settings: for Predicted hepatic CL: Dog liver microsomes; for Remaining Percentage (%): Dog; for CLint scaled at 2 μM / half-life at 2 μM / microsomal CLint at 2 μM: dog, microsomes
[4] = Liver microsomes stability, mouse; settings: for Predicted hepatic CL: Mouse liver microsomes; for Remaining Percentage (%): Mouse; for CLint scaled at 2 μM / half-life at 2 μM / microsomal CLint at 2 μM: male, mouse, microsomes
Protocol: as §1, §2, §3, §4, §5, §6, §7, §8, §9, §10

[5] = [3H]-ketanserin competition, read-out: h5-HT2A IC50

## CCCCC/C=C\C/C=C\CCCCCCCC(=O)n1cc(C2CCN(C)C2)c2cc(OC)ccc21 (racemic) [Compound I-13, (9Z,12Z)-1-(5-Methoxy-3-(1-methylpyrrolidin-3-yl)-1H-indol-1-yl)octadeca-9,12-dien-1-one]
Human 5-HT2A receptor; [5]
  IC50: 2 to 5 µM

## CCCCC/C=C\C/C=C\CCCCCCCC(=O)n1cc(C[C@H]2CCCN2C)c2cc(OC)ccc21 [Compound I-6, (9Z,12Z)-1-(5-Methoxy-3-(((R)-1-methylpyrrolidin-2-yl)methyl)-1H-indol-1-yl)octadeca-9,12-dien-1-one]
[1]
  Predicted hepatic CL: 14.24 mL/min/kg
  CLint scaled at 2 μM: 19.2 mL/min/kg
  half-life at 2 μM: 2.16 h
  microsomal CLint at 2 μM: 10.7 µL/min/mg
[1]; With NADPH, 0 min
  Remaining Percentage (%): 100.00%
[1]; With NADPH, 30 min
  Remaining Percentage (%): 83.04%
[1]; With NADPH, 60 min
  Remaining Percentage (%): 72.53%
[1]; Without NADPH, 0 min
  Remaining Percentage (%): 100.00%
[1]; Without NADPH, 30 min
  Remaining Percentage (%): 93.17%
[1]; Without NADPH, 60 min
  Remaining Percentage (%): 92.62%
Human 5-HT2A receptor
  IC50: < 2 µM
[2]
  Predicted hepatic CL: 4.62 mL/min/kg
  CLint scaled at 2 μM: 5.94 mL/min/kg
  half-life at 2 μM: 4.88 h
  microsomal CLint at 2 μM: 4.74 µL/min/mg
[2]; With NADPH, 0 min
  Remaining Percentage (%): 100.00%
[2]; With NADPH, 30 min
  Remaining Percentage (%): 91.33%
[2]; With NADPH, 60 min
  Remaining Percentage (%): 86.76%
[2]; Without NADPH, 0 min
  Remaining Percentage (%): 100.00%
[2]; Without NADPH, 30 min
  Remaining Percentage (%): 89.58%
[2]; Without NADPH, 60 min
  Remaining Percentage (%): 83.22%
[3]
  Predicted hepatic CL: 22.75 mL/min/kg
  CLint scaled at 2 μM: 86.3 mL/min/kg
  half-life at 2 μM: 0.667 h
  microsomal CLint at 2 μM: 34.6 µL/min/mg
[3]; With NADPH, 0 min
  Remaining Percentage (%): 100.00%
[3]; With NADPH, 30 min
  Remaining Percentage (%): 49.51%
[3]; With NADPH, 60 min
  Remaining Percentage (%): 35.40%
[3]; Without NADPH, 0 min
  Remaining Percentage (%): 100.00%
[3]; Without NADPH, 30 min
  Remaining Percentage (%): 84.09%
[3]; Without NADPH, 60 min
  Remaining Percentage (%): 91.76%
[4]
  Predicted hepatic CL: 33.37 mL/min/kg
  CLint scaled at 2 μM: 53 mL/min/kg
  half-life at 2 μM: 1.91 h
  microsomal CLint at 2 μM: 12.1 µL/min/mg
[4]; With NADPH, 0 min
  Remaining Percentage (%): 100.00%
[4]; With NADPH, 30 min
  Remaining Percentage (%): 76.15%
[4]; With NADPH, 60 min
  Remaining Percentage (%): 69.51%
[4]; Without NADPH, 0 min
  Remaining Percentage (%): 100.00%
[4]; Without NADPH, 30 min
  Remaining Percentage (%): 81.25%
[4]; Without NADPH, 60 min
  Remaining Percentage (%): 91.07%

## [2H]C([2H])([2H])Oc1ccc2c(c1)c(C([2H])([2H])C([2H])([2H])N(C([2H])([2H])[2H])C([2H])([2H])[2H])cn2C(=O)CCCCCCC/C=C\C/C=C\CCCCC [Compound I-4, (9Z,12Z)-1-(3-(2-(Bis(methyl-d3)amino)ethyl-1,1,2,2-d4)-5-(methoxy-d3)-1H-indol-1-yl)octadeca-9,12-dien-1-one]
Human 5-HT2A receptor
  IC50: < 2 µM

## [2H]c1c([2H])c([2H])c2c(c1[2H])c(CCN(C([2H])([2H])[2H])C([2H])([2H])[2H])c([2H])n2C(=O)CCCCCCC/C=C\C/C=C\CCCCC [Compound I-7, (9Z,12Z)-1-(3-(2-(Bis(methyl-d3)amino)ethyl)-1H-indol-1-yl-2,4,5,6,7-d5)octadeca-9,12-dien-1-one]
Human 5-HT2A receptor
  IC50: 2 to 5 µM

## CCCCC/C=C\C/C=C\CCCCCCCC(=O)n1cc(C[C@H]2CCCN2C)c2ccccc21 [Compound I-5, (9Z,12Z)-1-(3-(((R)-1-Methylpyrrolidin-2-yl)methyl)-1H-indol-1-yl)octadeca-9,12-dien-1-one]
[1]
  Predicted hepatic CL: 24.83 mL/min/kg
  CLint scaled at 2 μM: 45.1 mL/min/kg
  half-life at 2 μM: 0.917 h
  microsomal CLint at 2 μM: 25.2 µL/min/mg
[1]; With NADPH, 0 min
  Remaining Percentage (%): 100.00%
[1]; With NADPH, 30 min
  Remaining Percentage (%): 69.74%
[1]; With NADPH, 60 min
  Remaining Percentage (%): 46.98%
[1]; Without NADPH, 0 min
  Remaining Percentage (%): 100.00%
[1]; Without NADPH, 30 min
  Remaining Percentage (%): 97.35%
[1]; Without NADPH, 60 min
  Remaining Percentage (%): 95.87%
Human 5-HT2A receptor
  IC50: < 2 µM
[2]
  Predicted hepatic CL: 6.42 mL/min/kg
  CLint scaled at 2 μM: 9.3 mL/min/kg
  half-life at 2 μM: 3.11 h
  microsomal CLint at 2 μM: 7.42 µL/min/mg
[2]; With NADPH, 0 min
  Remaining Percentage (%): 100.00%
[2]; With NADPH, 30 min
  Remaining Percentage (%): 86.52%
[2]; With NADPH, 60 min
  Remaining Percentage (%): 80.05%
[2]; Without NADPH, 0 min
  Remaining Percentage (%): 100.00%
[2]; Without NADPH, 30 min
  Remaining Percentage (%): 85.69%
[2]; Without NADPH, 60 min
  Remaining Percentage (%): 80.25%
[3]
  Predicted hepatic CL: 21.51 mL/min/kg
  CLint scaled at 2 μM: 70.8 mL/min/kg
  half-life at 2 μM: 0.814 h
  microsomal CLint at 2 μM: 28.4 µL/min/mg
[3]; With NADPH, 0 min
  Remaining Percentage (%): 100.00%
[3]; With NADPH, 30 min
  Remaining Percentage (%): 65.44%
[3]; With NADPH, 60 min
  Remaining Percentage (%): 42.66%
[3]; Without NADPH, 0 min
  Remaining Percentage (%): 100.00%
[3]; Without NADPH, 30 min
  Remaining Percentage (%): 87.66%
[3]; Without NADPH, 60 min
  Remaining Percentage (%): 90.58%
[4]
  Predicted hepatic CL: 41.60 mL/min/kg
  CLint scaled at 2 μM: 77.3 mL/min/kg
  half-life at 2 μM: 1.31 h
  microsomal CLint at 2 μM: 17.7 µL/min/mg
[4]; With NADPH, 0 min
  Remaining Percentage (%): 100.00%
[4]; With NADPH, 30 min
  Remaining Percentage (%): 74.79%
[4]; With NADPH, 60 min
  Remaining Percentage (%): 58.84%
[4]; Without NADPH, 0 min
  Remaining Percentage (%): 100.00%
[4]; Without NADPH, 30 min
  Remaining Percentage (%): 80.19%
[4]; Without NADPH, 60 min
  Remaining Percentage (%): 90.42%

## CCCCC/C=C\C/C=C\CCCCCCCC(=O)n1cc(C2CCN(C)C2)c2ccccc21 (racemic) [Compound I-12, (9Z,12Z)-1-(3-(1-Methylpyrrolidin-3-yl)-1H-indol-1-yl)octadeca-9,12-dien-1-one]
Human 5-HT2A receptor; [5]
  IC50: 2 to 5 µM

## [2H]C([2H])([2H])N(C([2H])([2H])[2H])C([2H])([2H])C([2H])([2H])c1cn(C(=O)CCCCCCC/C=C\C/C=C\CCCCC)c2cccc(F)c12 [Compound I-9, (9Z,12Z)-1-(3-(2-(Bis(methyl-d3)amino)ethyl-1,1,2,2-d4)-4-fluoro-1H-indol-1-yl)octadeca-9,12-dien-1-one]
Human 5-HT2A receptor
  IC50: 2 to 5 µM

## CCCCC/C=C\C/C=C\CCCCCCCC(=O)n1cc(CCN(C)C)c2ccccc21 [Compound I-8, (9Z,12Z)-1-(3-(2-(Dimethylamino)ethyl)-1H-indol-1-yl)octadeca-9,12-dien-1-one]
[1]
  Predicted hepatic CL: 12.94 mL/min/kg
  CLint scaled at 2 μM: 16.9 mL/min/kg
  half-life at 2 μM: 2.45 h
  microsomal CLint at 2 μM: 9.44 µL/min/mg
[1]; With NADPH, 0 min
  Remaining Percentage (%): 100.00%
[1]; With NADPH, 30 min
  Remaining Percentage (%): 91.29%
[1]; With NADPH, 60 min
  Remaining Percentage (%): 75.35%
[1]; Without NADPH, 0 min
  Remaining Percentage (%): 100.00%
[1]; Without NADPH, 30 min
  Remaining Percentage (%): 107.31%
[1]; Without NADPH, 60 min
  Remaining Percentage (%): 109.93%
Human 5-HT2A receptor; [5]
  IC50: < 2 µM
[2]
  Predicted hepatic CL: 2.16 mL/min/kg
  CLint scaled at 2 μM: 2.42 mL/min/kg
  half-life at 2 μM: 12 h
  microsomal CLint at 2 μM: 1.93 µL/min/mg
[2]; With NADPH, 0 min
  Remaining Percentage (%): 100.00%
[2]; With NADPH, 30 min
  Remaining Percentage (%): 91.39%
[2]; With NADPH, 60 min
  Remaining Percentage (%): 94.38%
[2]; Without NADPH, 0 min
  Remaining Percentage (%): 100.00%
[2]; Without NADPH, 30 min
  Remaining Percentage (%): 91.04%
[2]; Without NADPH, 60 min
  Remaining Percentage (%): 100.94%
[3]
  Predicted hepatic CL: 18.69 mL/min/kg
  CLint scaled at 2 μM: 47.3 mL/min/kg
  half-life at 2 μM: 1.22 h
  microsomal CLint at 2 μM: 19 µL/min/mg
[3]; With NADPH, 0 min
  Remaining Percentage (%): 100.00%
[3]; With NADPH, 30 min
  Remaining Percentage (%): 66.41%
[3]; With NADPH, 60 min
  Remaining Percentage (%): 56.62%
[3]; Without NADPH, 0 min
  Remaining Percentage (%): 100.00%
[3]; Without NADPH, 30 min
  Remaining Percentage (%): 84.36%
[3]; Without NADPH, 60 min
  Remaining Percentage (%): 92.44%
[4]
  Predicted hepatic CL: 6.52 mL/min/kg
  CLint scaled at 2 μM: 7.03 mL/min/kg
  half-life at 2 μM: 14.4 h
  microsomal CLint at 2 μM: 1.61 µL/min/mg
[4]; With NADPH, 0 min
  Remaining Percentage (%): 100.00%
[4]; With NADPH, 30 min
  Remaining Percentage (%): 105.41%
[4]; With NADPH, 60 min
  Remaining Percentage (%): 95.29%
[4]; Without NADPH, 0 min
  Remaining Percentage (%): 100.00%
[4]; Without NADPH, 30 min
  Remaining Percentage (%): 87.39%
[4]; Without NADPH, 60 min
  Remaining Percentage (%): 85.47%
